Assays:
Assay in all cases: Determination of the minimum inhibitory concentration (MIC value) in microtitre plates
E. coli = assay type: cell-based, Escherichia coli NCTC 8196; settings: Escherichia coli; optical density at 620 nm, 48 hours at 37° C., MIC = ≦20% growth; tested at 100; 10 and 1 ppm (approximate values); (2), (3), (4) at 120; 60; 30; 15; 7.5; 3.75 ppm
Method in brief: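 E. coli NCTC 8196 grown overnight in CASO bouillon, adjusted to 1−5×10^6 KBE/ml, diluted 1:100 and added to DMSO-dissolved compounds in 1:2 dilution series. Incubated 48 h at 37° C; growth read as OD 620 nm. MIC is the lowest concentration giving ≤20% growth versus growth control; duplicates.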

S. aureus = assay type: cell-based; settings: Staphylococcus aureus; optical density at 620 nm, 48 hours at 37° C., MIC = ≦20% growth; tested at 100; 10 and 1 ppm (approximate values); (2), (3), (4) at 120; 60; 30; 15; 7.5; 3.75 ppm
Method in brief: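 DMSO-dissolved compounds were tested in 1:2 serial dilutions against bacteria in CASO bouillon, from inocula of 1−5×10^6 KBE/ml diluted 1:100. Growth was read by OD 620 nm after 48 h at 37 °C. MIC was the lowest concentration giving ≦20% growth versus the growth control, tested in duplicate.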

A. niger = assay type: cell-based, Aspergillus niger ATCC 6275; settings: Aspergillus niger, 120 h; optical density at 620 nm, 5 days at 28° C., MIC = ≦20% growth; tested at 100; 10 and 1 ppm (approximate values); (2), (3), (4) at 120; 60; 30; 15; 7.5; 3.75 ppm
Method in brief: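 A. niger ATCC 6275 spores, adjusted to 1−5×10^6 KBE/ml and diluted 1:100 in Sabouraud 2% glucose bouillon, were exposed to 2-fold dilutions of DMSO-dissolved compounds for 5 days at 28°C. Growth read as OD at 620 nm. MIC is the lowest concentration giving ≤20% growth versus growth control, tested in duplicate.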

| SMILES | MIC (E. coli) | MIC (S. aureus) | MIC (A. niger) |
| --- | --- | --- | --- |
| CC(C)(C)c1csc(/C=C/c2ccccc2O)n1 [Compound of formula (3)] | > 100 µg/mL | 60 µg/mL | > 100 µg/mL |
| Oc1ccc(/C=C/c2nc(-c3ccccc3)cs2)cc1 [Compound of formula (4)] | > 100 µg/mL | > 100 µg/mL | > 100 µg/mL |
| Oc1ccc(/C=C/c2nc(-c3ccc(F)cc3)cs2)cc1 [Compound of formula (2)] | > 100 µg/mL | > 100 µg/mL | > 100 µg/mL |
